Data from ChEMBL document CHEMBL1126161, “3,4-Dihydroquinolin-2(1H)-ones as combined inhibitors of thromboxane A2 synthase and cAMP phosphodiesterase” (J Med Chem, 1992).
Values joined by “and” are separate entries in the source; they are usually repeats but may differ in a detail not shown here. Equal values may be shown once. Each block holds one compound with its values, some of them ahead of it.

Experiments:
[1] = system: Rattus norvegicus; test: Antihypertensive activity in conscious spontaneously hypertensive rat (SHR), percent change in Systolic blood pressure (SBP) after 1 hr; format: functional; set-up: concentration or dose not given beside the values
[2] = system: Rattus norvegicus; test: Antihypertensive activity in conscious spontaneously hypertensive rat (SHR), percent change in heart rate (beats/min) after 1 hr at 10 mg/kg peroral dose; format: functional; details: route oral
[3] = system: Rattus norvegicus; test: Antihypertensive activity in conscious spontaneously hypertensive rat (SHR), percent change in heart rate (beats/min) after 2 hr at 10 mg/kg peroral dose; format: functional; details: route oral
[4] = organism: Homo sapiens; test: Inhibition of ADP-induced aggregation of human PRP in the absence of pig aortal microsomes (PAM); format: functional
[5] = organism: Homo sapiens; test: In vitro inhibition of ADP-induced aggregation of human PRP in the presence of pig aortal microsomes (PAM).; format: functional
[6] = system: Rattus norvegicus; test: Antihypertensive activity in conscious spontaneously hypertensive rat (SHR), percent change in Systolic blood pressure (SBP) after 2 hr at 10 mg/kg peroral dose; format: functional; details: route oral
[7] = system: Rattus norvegicus; test: Antihypertensive activity in conscious spontaneously hypertensive rat (SHR), percent change in heart rate (beats/min) after 4 hr at 10 mg/kg peroral dose; format: functional; details: route oral
[8] = system: Rattus norvegicus; test: Antihypertensive activity in conscious spontaneously hypertensive rat (SHR), percent change in Systolic blood pressure (SBP) after 4 hr at 10 mg/kg peroral dose; format: functional; details: route oral
[9] = organism: Homo sapiens; test: Ratio of IC50(w/oPAM)/IC50(w/PAM); format: functional
[10] = organism: Homo sapiens; test: (§1) Ratio of IC50(PDE)/IC50(TXA2)
[11] = system: Mus musculus; test: Protection against mortality in pulmonary thromboembolism model in mice at 1 mg/kg; format: functional
[12] = system: Mus musculus; test: Protection against mortality in pulmonary thromboembolism model in mice at 3 mg/kg; format: functional
[13] = system: Mus musculus; test: Protection against mortality in pulmonary thromboembolism model in mice at 9 mg/kg; format: functional
[14] = molecular target: T1, Thromboxane-A synthase (Homo sapiens, UniProt P24557); test: Compound was evaluated for the inhibition of human blood platelet, thromboxane A2 synthase
T1 sequence (P24557 whole entry): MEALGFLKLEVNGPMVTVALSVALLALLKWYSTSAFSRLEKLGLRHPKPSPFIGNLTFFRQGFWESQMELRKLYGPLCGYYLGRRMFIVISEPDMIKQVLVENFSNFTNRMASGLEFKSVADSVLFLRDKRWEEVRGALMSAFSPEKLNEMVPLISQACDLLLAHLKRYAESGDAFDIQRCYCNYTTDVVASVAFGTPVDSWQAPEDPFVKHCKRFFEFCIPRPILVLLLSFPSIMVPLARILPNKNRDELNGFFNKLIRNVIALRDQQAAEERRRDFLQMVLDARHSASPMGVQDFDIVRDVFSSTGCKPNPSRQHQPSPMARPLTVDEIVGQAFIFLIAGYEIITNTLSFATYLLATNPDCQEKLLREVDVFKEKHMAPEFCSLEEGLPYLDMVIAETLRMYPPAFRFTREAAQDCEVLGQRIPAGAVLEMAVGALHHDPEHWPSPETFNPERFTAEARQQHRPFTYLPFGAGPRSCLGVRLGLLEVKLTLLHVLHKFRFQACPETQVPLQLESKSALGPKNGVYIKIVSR

[15] = molecular target: Phosphodiesterase 3 (Homo sapiens, UniProt Q14432+Q13370); test: Inhibition of human blood platelet c-AMP phosphodiesterase
[16] = organism: Homo sapiens; test: as §1; format: functional
[17] = organism: Homo sapiens; test: Inhibition of ADP-induced platelet aggregation of human PRP in the presence of pig aortal microsomes (PAM); format: functional
[18] = organism: Mus musculus; test: Time course of protection against mortality in a pulmonary thromboembolism model in mice after -1h; format: functional
[19] = organism: Homo sapiens; test: Inhibition of ADP-induced platelet aggregation of human PRP without pig aortal microsomes (PAM); format: functional
[20] = organism: Mus musculus; test: Time course of protection against mortality in a pulmonary thromboembolism model in mice after -3h; format: functional
[21] = system: Mus musculus; test: Protection against mortality in pulmonary thromboembolism model in mice at 30 mg/kg; format: functional
[22] = system: Mus musculus; test: Protection against mortality in pulmonary thromboembolism model in mice at 12 mg/kg; format: functional
[23] = organism: Mus musculus; test: Time course of protection against mortality in a pulmonary thromboembolism model in mice after -7h; format: functional
[24] = organism: Mus musculus; test: Time course of protection against mortality in a pulmonary thromboembolism model in mice after -5h; format: functional
[25] = system: Rattus norvegicus; test: Effect of TXA2 synthase inhibitor (compound) on serum TXB2 level in rats at 50 mg/kg po, after 2 hr; format: functional
[26] = molecular target: T1, Thromboxane-A synthase; test: Compound was evaluated for the inhibition of human blood platelet thromboxane A2 synthase

Structure (SMILES): O=C1CCc2cc(/C=C/c3cccnc3)ccc2N1
Change systolic BP [1]: -7%
Change in heart rate [2]: 11%
Change in heart rate [3]: 23%
IC50 [4]: 95 µM
IC50 [5]: 6.2 µM
Change systolic BP [6]: -7%
Change in heart rate [7]: 32%
Change systolic BP [8]: -12%
Ratio [9]: 15

Structure (SMILES): C=C(Cn1ccnc1)c1ccc2c(c1)CCC(=O)N2
IC50 [4]: 74 µM
IC50 [5]: 7.6 µM
Ratio [9]: 9.7

Structure (SMILES): O=C1CCc2cc(C(c3ccccc3)n3ccnc3)ccc2N1 (configuration not stated)
Ratio [10]: 114
survival at 1 mg/kg [11]: 20%
survival at 3 mg/kg [12]: 20%
survival at 9 mg/kg [13]: 40%
IC50 [14]: 0.35 µM
IC50 [4]: 44 µM
IC50 [5]: 0.35 µM
IC50 [15]: 40 µM

Structure (SMILES): CC(Cn1ccnc1)c1ccc2c(c1)CCC(=O)N2 (configuration not stated)
IC50 [4]: 350 µM
IC50 [5]: 5.5 µM
Ratio [9]: 64

Structure (SMILES): Oc1ccc2cc(/C=C/n3ccnc3)ccc2n1
IC50 [4]: 2.8 µM
IC50 [5]: 0.38 µM
IC50 [15]: 4 µM
Ratio [16]: 10.5
Ratio [9]: 7.4

Structure (SMILES): Cc1c(Cn2ccnc2)c2ccccc2n1CCC(=O)O [DAZMEGREL]
survival at 1 mg/kg [11]: 30%
IC50 [17]: 2 µM
survival at 3 mg/kg [12]: 30%
Survival [18]: 11%
survival at 9 mg/kg [13]: 50%
IC50 [19]: 97 µM
Survival [20]: 20%
survival at 30 mg/kg [21]: 20%
survival at 12 mg/kg [22]: 60%
Survival [23]: 10%
Survival [24]: 0%

Structure (SMILES): O=C1CCc2cc(-n3ccnc3)ccc2N1
IC50 [14]: 2 µM
IC50 [4]: 80 µM
IC50 [5]: 2 µM
IC50 [15]: 16 µM
Ratio [16]: 8
inhibition in vivo at 50 mg/kg [25]: 77%
Ratio [9]: 40

Structure (SMILES): CCCCCC(Cc1cccnc1)c1ccc2c(c1)CCC(=O)N2 (configuration not stated)
IC50 [5]: 37 µM

Structure (SMILES): CCCCCC(Cn1ccnc1)c1ccc2c(c1)CCC(=O)N2 (configuration not stated)
IC50 [26]: 25 µM
IC50 [5]: 25 µM
IC50 [15]: 14 µM

Structure (SMILES): O=C1CCc2cc(CCn3ccnc3)ccc2N1
Change systolic BP [1]: -14%
Change in heart rate [2]: 17%
Change in heart rate [3]: 34%
IC50 [4]: 140 µM
IC50 [5]: 8.3 µM
Change systolic BP [6]: -2%
Change in heart rate [7]: 12%
Change systolic BP [8]: -13%
Ratio [9]: 17

Structure (SMILES): O=C1CCc2cc(C#CCn3ccnc3)ccc2N1
Change systolic BP [1]: -3%
Change in heart rate [2]: 9%
Change in heart rate [3]: 11%
Change systolic BP [6]: -5%
Change in heart rate [7]: 11%
Change systolic BP [8]: -15%

The next lines start with results.

IC50 [4]: 90 µM
IC50 [5]: 2.2 µM
Structure (SMILES): C/C(=C\c1cccnc1)c1ccc2c(c1)CCC(=O)N2
Change systolic BP [1]: -19% and -16%
Change in heart rate [3]: 20%
Change systolic BP [6]: -15%
Change in heart rate ([7]; 10 mg/kg): 12% and 25%
Ratio [9]: 41

IC50 [5]: 170 µM
Structure (SMILES): O=C1CCc2cc(/C(=C/c3cccnc3)c3ccccc3)ccc2N1

IC50 [5]: 8.5 µM
Structure (SMILES): O=C1CCc2cc(CCc3cccnc3)ccc2N1

IC50 [4]: 37 µM
IC50 [5]: 2.5 µM
Structure (SMILES): CCCCCC(c1ccc2c(c1)CCC(=O)N2)n1ccnc1 (configuration not stated)

IC50 [5]: 58 µM
Structure (SMILES): CCCCC/C(=C\c1cccnc1)c1ccc2c(c1)CCC(=O)N2

IC50 [4]: 13 µM
IC50 [5]: 1.6 µM
Structure (SMILES): C/C(=C\n1ccnc1)c1ccc2c(c1)CCC(=O)N2
Ratio [9]: 8.1

IC50 [14]: 0.38 µM
Structure (SMILES): O=c1ccc2cc(/C=C/n3ccnc3)ccc2[nH]1

IC50 [4]: 160 µM
IC50 [5]: 1.7 µM
Structure (SMILES): O=C1CCc2cc(/C=C/Cn3ccnc3)ccc2N1
Change systolic BP [1]: -19%
Change in heart rate [2]: 15%
Change in heart rate [3]: 15%
Change systolic BP [6]: -17%
Change in heart rate [7]: 14%
Change systolic BP [8]: 5%
inhibition in vivo at 50 mg/kg [25]: -28%
Ratio [9]: 94

IC50 [4]: 270 µM
IC50 [5]: 28 µM
Structure (SMILES): O=C1CCc2cc(/C(=C/n3ccnc3)c3ccccc3)ccc2N1
Ratio [9]: 9.6

IC50 [4]: 11 µM
IC50 [5]: 3 µM
Structure (SMILES): O=C1CCc2cc(C(c3ccccc3)c3cccnc3)ccc2N1 (configuration not stated)

IC50 [5]: 35 µM
Structure (SMILES): CC(Cc1cccnc1)c1ccc2c(c1)CCC(=O)N2 (configuration not stated)

IC50 [4]: 240 µM
IC50 [5]: 11 µM
Structure (SMILES): O=C1CCc2cc(C#Cc3cccnc3)ccc2N1
Change systolic BP [1]: -13%
Change in heart rate [2]: 4%
Change in heart rate [3]: 15%
Change systolic BP [6]: -6%
Change in heart rate [7]: 22%
Change systolic BP [8]: -5%
Ratio [9]: 22

IC50 [5]: 200 µM
Structure (SMILES): O=C1CCc2cc(C(Cn3ccnc3)c3ccccc3)ccc2N1 (configuration not stated)
